Laboratory results taken from patent US10759781B2, “Substituted guanidine derivatives” (UBE INDUSTRIES, LTD., priority 2015, dated 2020).
Counter-ions that a name gives are not always drawn.

Target: T1, Human VAP-1 enzyme (Homo sapiens, UniProt Q16853)
T1 construct: purchased R&D Systems, Inc
T1 sequence (Q16853 1-763): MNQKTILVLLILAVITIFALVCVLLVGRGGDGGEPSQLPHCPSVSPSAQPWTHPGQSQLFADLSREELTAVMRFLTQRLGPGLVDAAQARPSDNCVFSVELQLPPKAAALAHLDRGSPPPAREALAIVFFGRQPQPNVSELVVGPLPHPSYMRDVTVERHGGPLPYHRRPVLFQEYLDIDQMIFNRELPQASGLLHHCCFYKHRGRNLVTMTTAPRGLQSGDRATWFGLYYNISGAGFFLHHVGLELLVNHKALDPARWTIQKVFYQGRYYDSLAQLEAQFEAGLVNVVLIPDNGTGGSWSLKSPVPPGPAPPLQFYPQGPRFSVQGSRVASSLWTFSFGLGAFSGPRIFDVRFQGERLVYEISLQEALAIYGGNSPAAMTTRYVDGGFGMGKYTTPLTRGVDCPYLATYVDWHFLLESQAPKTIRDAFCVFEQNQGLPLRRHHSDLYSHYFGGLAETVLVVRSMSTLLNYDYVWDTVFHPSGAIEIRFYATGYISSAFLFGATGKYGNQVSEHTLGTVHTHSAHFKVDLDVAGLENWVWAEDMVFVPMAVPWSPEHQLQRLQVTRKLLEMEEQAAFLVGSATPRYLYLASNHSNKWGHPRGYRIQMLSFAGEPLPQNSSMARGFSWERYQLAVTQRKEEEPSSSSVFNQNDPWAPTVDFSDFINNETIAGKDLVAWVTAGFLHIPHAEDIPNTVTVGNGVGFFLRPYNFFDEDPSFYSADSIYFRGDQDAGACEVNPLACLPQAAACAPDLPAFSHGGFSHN
Test: Human VAP-1 enzyme inhibition test
Assay type: biochemical
Conditions: 1 h; compound 30 nM; 14C-benzylamine 100 μM; read-out: inhibition ratio (human VAP-1 enzyme)
Procedure: Human VAP-1 enzyme inhibition test
This test was conducted by modifying the method of P. H. Yu et al. (Diabetologia 40 1243 (1997)). Human VAP-1 enzyme (R&D Systems, Inc.) was pre-incubated in a 96-well plate with the compound dissolved in dimethylsulfoxide at room temperature for 20 minutes. Next, in a solution to the final volume of 200 μL, the enzyme reaction solution was incubated with ^14C-benzylamine (final concentration 100 μM) at 37° C. for 1 hour. The reaction was terminated by the addition of 100 μL of 2 M citric acid solution to the reaction solution. The oxidative product was extracted using a toluene/ethyl acetate mixture and the radioactivity was measured with a liquid scintillation counter. The inhibition ratio of the compound was calculated using the following equation. Inhibition ratio={1−[VAP-1 enzyme activity after treatment with the compound]/[VAP-1 enzyme activity in the presence of dimethylsulfoxide alone without the compound]}×100

Row | SMILES | inhibition at 0.03 µM [%]
1 | N=C(N)NC(=O)OCc1cccc(-c2cnc(N3CC(=NOCC4CCC(=O)O4)C3)nc2)c1F (stereo not drawn) [Example 132, 2-Fluoro-3-[2-(3-{[(5-oxotetrahydrofuran-2-yl)methoxy]imino}azetidin-1-yl)pyrimidin-5-yl]benzyl carbamimidoylcarbamate] | ≥ 50
2 | N=C(N)NC(=O)OCc1cccc(-c2cnc(N3CC(=NOCCN4CCOCC4)C3)nc2)c1F [Example 125, 2-Fluoro-3-(2-{3-[(2-morpholinoethoxy)imino]azetidin-1-yl}pyrimidin-5-yl)benzyl carbamimidoylcarbamate] | ≥ 50
3 | CN(C)CCON=C1CN(c2ncc(-c3cccc(COC(=O)NC(=N)N)c3F)cn2)C1 [Example 117, 3-[2-(3-{[2-(Dimethylamino)ethoxy]imino}azetidin-1-yl)pyrimidin-5-yl]-2-fluorobenzyl carbamimidoylcarbamate] | ≥ 50
4 | O=C(O)C(O)C(O)C(=O)O.[2H]C([2H])([2H])ON=C1CN(c2ncc(-c3cccc(COC(=O)NC(=N)N)c3F)cc2F)C1 [Example 204, 2-Fluoro-3-(5-fluoro-6-{3-[(methoxy-d3)imino]azetidin-1-yl}pyridin-3-yl)benzyl carbamimidoylcarbamate 1/2 L-tartrate] | ≥ 50
5 | CC(C)(C)OC(=O)CON=C1CN(c2ncc(-c3cccc(COC(=O)NC(=N)N)c3F)cn2)C1 [Example 108, tert-Butyl 2-[({1-[5-(3-{[(carbamimidoylcarbamoyl)oxy]methyl}-2-fluorophenyl)pyrimidin-2-yl]azetidin-3-ylidene}amino)oxy]acetate] | ≥ 50
6 | COc1ccc(CON=C2CN(c3ncc(-c4cccc(COC(=O)NC(=N)N)c4F)cn3)C2)cc1 [Example 136, 2-Fluoro-3-[2-(3-{[(4-methoxybenzyl)oxy]imino}azetidin-1-yl)pyrimidin-5-yl]benzyl carbamimidoylcarbamate] | ≥ 50
7 | N=C(N)NC(=O)OCc1cccc(-c2cnc(N3CCC(=NOCc4cnn(C5CCCCO5)c4)CC3)nc2)c1F (stereo not drawn) [Example 172, 2-Fluoro-3-{2-[4-({[1-(tetrahydropyran-2-yl)-1H-pyrazol-4-yl]methoxy}imino)piperidin-1-yl]pyrimidin-5-yl}benzyl carbamimidoylcarbamate] | ≥ 50
8 | N=C(N)NC(=O)OCc1cccc(-c2cnc(N3CC(=NOC4CN(Cc5ccccc5)C4)C3)nc2)c1F [Example 139, 3-[2-(3-{[(1-Benzylazetidin-3-yl)oxy]imino}azetidin-1-yl)pyrimidin-5-yl]-2-fluorobenzyl carbamimidoylcarbamate] | ≥ 50
9 | COCC(CO)CON=C1CN(c2ncc(-c3cccc(COC(=O)NC(=N)N)c3F)cn2)C1 (stereo not drawn) [Example 100, 2-Fluoro-3-[2-(3-{[3-hydroxy-2-(methoxymethyl)propoxy]imino}azetidin-1-yl)pyrimidin-5-yl]benzyl carbamimidoylcarbamate] | ≥ 50
10 | COC(CO)CCON=C1CN(c2ncc(-c3cccc(COC(=O)NC(=N)N)c3F)cn2)C1 (stereo not drawn) [Example 76, 2-Fluoro-3-(2-{3-[(4-hydroxy-3-methoxybutoxy)imino]azetidin-1-yl}pyrimidin-5-yl)benzyl carbamimidoylcarbamate] | ≥ 50
11 | CON=C1CN(c2ncc(-c3cccc(COC(=O)NC(=N)N)c3F)cc2OC)C1 [Example 50, 2-Fluoro-3-{5-methoxy-6-[3-(methoxyimino)azetidin-1-yl]pyridin-3-yl}benzyl carbamimidoylcarbamate] | ≥ 50
12 | CN(CCON=C1CCN(c2ncc(-c3cccc(COC(=O)NC(=N)N)c3F)cn2)CC1)S(C)(=O)=O [Example 157, 2-Fluoro-3-[2-(4-{[2-(N-methylmethylsulfonamido)ethoxy]imino}piperidin-1-yl)pyrimidin-5-yl]benzyl carbamimidoylcarbamate hydrochloride] | ≥ 50
